# Measured values: ChEMBL document CHEMBL1145846, “Discovery of allosteric potentiators for the metabotropic glutamate 2 receptor: synthesis and subtype selectivity of N-(4-(2-methoxyphenoxy)phenyl)-N-(2,2,2- trifluoroethylsulfonyl)pyrid-3-ylmethylamine” (J Med Chem, 2003)
# Columns and labels:
# [1] = target: T1, Metabotropic glutamate receptor 2 (Homo sapiens, UniProt Q14416); test: Effective concentration against Metabotropic glutamate receptor 2
# [2] = target: Metabotropic glutamate receptor 3 (Homo sapiens, UniProt Q14832); test: Effective concentration against human cloned Metabotropic glutamate receptor 3
# [3] = target: T1, Metabotropic glutamate receptor 2; test: Ability to displace [3H]LY-341,495 at glutamate-site on Metabotropic glutamate receptor 2; No significant displacement
# T1 sequence (Q14416 whole entry): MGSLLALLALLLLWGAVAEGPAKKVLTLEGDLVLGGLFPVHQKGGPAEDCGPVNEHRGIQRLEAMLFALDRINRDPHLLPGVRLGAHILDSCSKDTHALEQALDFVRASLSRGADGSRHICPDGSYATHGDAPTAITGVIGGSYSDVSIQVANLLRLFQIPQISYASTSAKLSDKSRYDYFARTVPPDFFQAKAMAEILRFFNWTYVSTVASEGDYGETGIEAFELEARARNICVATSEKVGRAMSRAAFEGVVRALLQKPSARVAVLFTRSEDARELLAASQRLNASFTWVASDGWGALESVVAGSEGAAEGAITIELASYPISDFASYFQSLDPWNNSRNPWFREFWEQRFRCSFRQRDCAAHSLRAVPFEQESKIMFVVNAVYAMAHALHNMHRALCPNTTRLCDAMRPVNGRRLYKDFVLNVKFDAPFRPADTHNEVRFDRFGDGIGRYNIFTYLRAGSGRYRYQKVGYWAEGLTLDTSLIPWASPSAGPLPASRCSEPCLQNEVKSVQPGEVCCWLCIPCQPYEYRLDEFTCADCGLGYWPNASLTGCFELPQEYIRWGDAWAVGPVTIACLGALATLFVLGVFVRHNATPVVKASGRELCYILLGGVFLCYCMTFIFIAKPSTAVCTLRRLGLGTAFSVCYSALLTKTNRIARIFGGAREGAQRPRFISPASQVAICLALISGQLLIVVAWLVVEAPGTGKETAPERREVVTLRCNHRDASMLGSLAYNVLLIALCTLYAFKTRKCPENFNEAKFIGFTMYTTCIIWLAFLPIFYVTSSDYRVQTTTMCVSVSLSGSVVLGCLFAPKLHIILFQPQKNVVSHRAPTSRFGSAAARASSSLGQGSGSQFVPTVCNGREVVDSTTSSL
# Chain of Metabotropic glutamate receptor 3 (Q14832 whole entry): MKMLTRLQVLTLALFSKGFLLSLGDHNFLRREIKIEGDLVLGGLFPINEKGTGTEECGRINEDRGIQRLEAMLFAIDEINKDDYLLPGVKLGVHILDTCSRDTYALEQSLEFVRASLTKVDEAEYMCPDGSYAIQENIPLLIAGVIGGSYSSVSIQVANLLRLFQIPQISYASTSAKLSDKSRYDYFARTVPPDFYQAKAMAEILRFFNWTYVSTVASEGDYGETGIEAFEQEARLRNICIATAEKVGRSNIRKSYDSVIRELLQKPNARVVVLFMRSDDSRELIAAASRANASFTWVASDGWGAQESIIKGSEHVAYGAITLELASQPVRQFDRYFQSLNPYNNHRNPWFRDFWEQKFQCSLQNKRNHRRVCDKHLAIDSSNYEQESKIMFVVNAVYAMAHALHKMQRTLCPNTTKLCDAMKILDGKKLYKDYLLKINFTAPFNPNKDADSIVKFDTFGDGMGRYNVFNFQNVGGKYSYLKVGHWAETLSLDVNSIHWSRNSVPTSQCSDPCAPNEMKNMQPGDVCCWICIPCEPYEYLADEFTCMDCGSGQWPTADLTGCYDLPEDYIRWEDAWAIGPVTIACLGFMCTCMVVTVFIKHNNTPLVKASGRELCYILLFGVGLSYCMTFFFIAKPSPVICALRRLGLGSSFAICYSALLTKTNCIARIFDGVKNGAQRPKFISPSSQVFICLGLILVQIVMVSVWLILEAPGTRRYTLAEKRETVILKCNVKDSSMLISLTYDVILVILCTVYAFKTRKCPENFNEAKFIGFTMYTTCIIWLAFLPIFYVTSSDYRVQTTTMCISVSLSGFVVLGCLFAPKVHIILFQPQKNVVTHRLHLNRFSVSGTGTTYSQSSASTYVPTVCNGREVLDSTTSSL
SMILES,EC50 [1],EC50 [2],IC50 [3]
CCS(=O)(=O)N(Cc1cccnc1)c1ccc(Oc2ccccc2)cc1,1500 nM,> 12500 nM,–
COc1ccccc1Oc1ccc(N(Cc2cccnc2)S(=O)(=O)CC(F)(F)F)cc1,270 nM,–,> 100000 nM
